Experimental data published in patent US10092606B2, “Synbiotic mixture” (Nestec S.A., priority 2006, dated 2018).

Biological target: toxin A from C. difficile (Clostridioides difficile, UniProt P16154)
Test: Protection of T84 monolayers against C. difficile toxin A (transepithelial electrical resistance)
Assay type: cell-based, Clostridium difficile
Settings: T84 cells; prebiotic in combination with the same probiotic strains; fructooligosaccharides 20 g/l, galactooligosaccharides 20 g/l, sialyllactose 10 g/l; compared with preparations of the invention; FIG. 2

Chain of toxin A from C. difficile (P16154 whole entry, looked up): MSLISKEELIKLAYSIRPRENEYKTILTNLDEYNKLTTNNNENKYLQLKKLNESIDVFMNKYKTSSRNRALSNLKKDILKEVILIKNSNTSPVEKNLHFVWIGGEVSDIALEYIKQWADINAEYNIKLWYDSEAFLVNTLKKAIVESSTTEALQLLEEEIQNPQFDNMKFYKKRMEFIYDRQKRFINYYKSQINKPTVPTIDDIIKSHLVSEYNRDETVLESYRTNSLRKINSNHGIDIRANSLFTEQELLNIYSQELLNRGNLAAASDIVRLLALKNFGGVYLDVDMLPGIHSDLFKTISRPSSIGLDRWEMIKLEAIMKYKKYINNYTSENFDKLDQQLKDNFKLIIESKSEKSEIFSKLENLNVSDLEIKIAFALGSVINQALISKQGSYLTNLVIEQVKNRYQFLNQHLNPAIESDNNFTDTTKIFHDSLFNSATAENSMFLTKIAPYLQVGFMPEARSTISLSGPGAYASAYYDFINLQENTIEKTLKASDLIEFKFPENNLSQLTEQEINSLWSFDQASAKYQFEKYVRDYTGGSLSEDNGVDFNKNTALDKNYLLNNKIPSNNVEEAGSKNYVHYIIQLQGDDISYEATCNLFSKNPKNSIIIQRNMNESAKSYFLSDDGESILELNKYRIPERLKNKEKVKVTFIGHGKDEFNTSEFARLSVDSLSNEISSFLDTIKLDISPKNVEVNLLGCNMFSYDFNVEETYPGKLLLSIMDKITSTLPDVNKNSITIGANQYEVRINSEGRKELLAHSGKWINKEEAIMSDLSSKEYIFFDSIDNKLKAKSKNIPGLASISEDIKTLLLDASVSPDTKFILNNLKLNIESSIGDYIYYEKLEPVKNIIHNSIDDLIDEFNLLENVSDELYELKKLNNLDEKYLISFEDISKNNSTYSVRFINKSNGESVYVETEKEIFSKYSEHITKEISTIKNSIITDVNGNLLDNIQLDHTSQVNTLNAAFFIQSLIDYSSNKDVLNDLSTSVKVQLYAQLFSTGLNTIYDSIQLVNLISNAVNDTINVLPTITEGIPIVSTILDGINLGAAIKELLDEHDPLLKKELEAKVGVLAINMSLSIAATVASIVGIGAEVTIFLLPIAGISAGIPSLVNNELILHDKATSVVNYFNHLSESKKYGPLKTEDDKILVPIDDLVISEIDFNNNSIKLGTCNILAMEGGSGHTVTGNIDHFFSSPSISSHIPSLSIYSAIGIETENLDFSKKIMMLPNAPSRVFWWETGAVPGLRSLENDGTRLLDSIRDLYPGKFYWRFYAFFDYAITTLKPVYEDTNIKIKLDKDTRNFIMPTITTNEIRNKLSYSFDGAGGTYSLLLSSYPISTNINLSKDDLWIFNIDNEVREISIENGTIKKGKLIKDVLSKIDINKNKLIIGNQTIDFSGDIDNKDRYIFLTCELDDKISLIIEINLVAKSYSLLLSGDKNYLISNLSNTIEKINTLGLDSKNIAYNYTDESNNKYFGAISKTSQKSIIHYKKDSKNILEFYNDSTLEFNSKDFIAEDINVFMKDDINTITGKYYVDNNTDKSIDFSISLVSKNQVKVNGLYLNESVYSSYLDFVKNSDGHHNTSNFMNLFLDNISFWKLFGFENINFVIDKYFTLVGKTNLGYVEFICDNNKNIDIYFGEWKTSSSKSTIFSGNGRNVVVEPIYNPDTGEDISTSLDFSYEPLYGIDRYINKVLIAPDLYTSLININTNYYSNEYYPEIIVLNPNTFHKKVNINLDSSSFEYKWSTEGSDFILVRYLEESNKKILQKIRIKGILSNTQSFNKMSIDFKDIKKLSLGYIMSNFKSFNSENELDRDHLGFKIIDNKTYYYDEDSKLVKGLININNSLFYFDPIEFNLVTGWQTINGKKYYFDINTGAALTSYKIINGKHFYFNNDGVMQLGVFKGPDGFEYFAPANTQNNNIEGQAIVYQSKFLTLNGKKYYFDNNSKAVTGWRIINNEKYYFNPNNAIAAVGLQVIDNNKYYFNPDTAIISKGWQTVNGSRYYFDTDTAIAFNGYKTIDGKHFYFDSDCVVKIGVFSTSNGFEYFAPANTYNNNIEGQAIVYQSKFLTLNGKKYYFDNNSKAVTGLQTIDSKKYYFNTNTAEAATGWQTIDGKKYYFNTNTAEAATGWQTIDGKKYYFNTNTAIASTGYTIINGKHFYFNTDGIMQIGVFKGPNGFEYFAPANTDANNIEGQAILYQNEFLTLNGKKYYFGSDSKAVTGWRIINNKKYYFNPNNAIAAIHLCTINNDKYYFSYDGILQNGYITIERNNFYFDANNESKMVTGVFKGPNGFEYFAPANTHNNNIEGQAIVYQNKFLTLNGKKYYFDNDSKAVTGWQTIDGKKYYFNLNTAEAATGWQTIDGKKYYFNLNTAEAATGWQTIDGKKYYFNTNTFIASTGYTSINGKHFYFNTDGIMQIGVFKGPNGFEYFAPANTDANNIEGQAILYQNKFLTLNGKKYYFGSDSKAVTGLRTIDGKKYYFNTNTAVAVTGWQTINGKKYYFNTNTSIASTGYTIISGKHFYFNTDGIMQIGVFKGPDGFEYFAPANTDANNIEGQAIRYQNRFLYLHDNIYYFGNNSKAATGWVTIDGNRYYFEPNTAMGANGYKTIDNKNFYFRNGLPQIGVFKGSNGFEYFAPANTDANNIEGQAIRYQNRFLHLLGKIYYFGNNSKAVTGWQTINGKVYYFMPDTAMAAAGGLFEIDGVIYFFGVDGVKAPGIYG

sialyllactose
effect against C. difficile toxin A (TER, normalized protection score): a comparable effect was not achieved
